Structures are written as SMILES.

Chain of Protease (Human immunodeficiency virus 1) (Q9YQ12 as listed by the source): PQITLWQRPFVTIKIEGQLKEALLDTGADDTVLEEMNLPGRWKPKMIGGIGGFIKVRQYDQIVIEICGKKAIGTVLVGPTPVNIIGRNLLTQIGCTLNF

The target of one assay is Protease (Human immunodeficiency virus 1, UniProt Q9YQ12). Nature of the assay: Inhibition of HIV1 protease expressed in Escherichia coli using Arg-Glu (EDANS)-Ser-Gln-Asn-Tyr-Pro-Ile-Val-Gln-Lys(DABCYL)-Arg as substrate preincubated for 20 to 30 mins followed by substrate addition and measured for 10 mins by FRET assay.
Chain of Protease (Q9YQ12 whole entry): as the sequence (Q9YQ12 as listed by the source) above
Turning to `C=C(C)[C@@H]1CC[C@]2(C(=O)N[C@@H](Cc3ccccc3)[C@H](O)CN(CC(C)C)S(=O)(=O)c3ccc(N)cc3)CC[C@]3(C)[C@H](CC[C@@H]4[C@@]5(C)CC[C@H](O)C(C)(C)[C@@H]5CC[C@]43C)[C@@H]12`, half-maximal inhibition (IC50) was put at 610 nM.
Still for that read-out and setting: the result for `CC(C)CN(C[C@@H](O)[C@H](Cc1ccccc1)NC(=O)[C@]1(C)CC[C@H]2C3=CC(=O)[C@@H]4[C@@]5(C)CC[C@H](O)C(C)(C)[C@@H]5CC[C@@]4(C)[C@]3(C)CC[C@@]2(C)C1)S(=O)(=O)c1ccc([N+](=O)[O-])cc1` reads 500 nM; that for `C=C(C)[C@@H]1CC[C@]2(C(=O)N[C@@H](Cc3ccccc3)[C@H](O)CN(CC(C)C)S(=O)(=O)c3ccc(OC)cc3)CC[C@]3(C)[C@H](CC[C@@H]4[C@@]5(C)CC[C@H](O)C(C)(C)[C@@H]5CC[C@]43C)[C@@H]12`, 210 nM.
`C=C(C)[C@@H]1CC[C@]2(C(=O)N[C@@H](Cc3ccccc3)[C@H](O)CN(CC(C)C)S(=O)(=O)c3ccc([N+](=O)[O-])cc3)CC[C@]3(C)[C@H](CC[C@@H]4[C@@]5(C)CC[C@H](O)C(C)(C)[C@@H]5CC[C@]43C)[C@@H]12` returned an IC50 of 1050 nM.
On the same count and under the same terms, the result for `CC(C)CN(C[C@@H](O)[C@H](Cc1ccccc1)NC(=O)[C@]12CCC(C)(C)C[C@H]1C1=CC[C@@H]3[C@@]4(C)CC[C@H](O)C(C)(C)[C@@H]4CC[C@@]3(C)[C@]1(C)CC2)S(=O)(=O)c1ccc(N)cc1` reads 170 nM.
For the compound `COc1ccc(S(=O)(=O)N(CC(C)C)C[C@@H](O)[C@H](Cc2ccccc2)NC(=O)[C@]2(C)CC[C@H]3C4=CC(=O)[C@@H]5[C@@]6(C)CC[C@H](O)C(C)(C)[C@@H]6CC[C@@]5(C)[C@]4(C)CC[C@@]3(C)C2)cc1`, the IC50 was 480 nM.
On the same count and under the same terms, then `COc1ccc(S(=O)(=O)N(CC(C)C)C[C@@H](O)[C@H](Cc2ccccc2)NC(=O)[C@]23CC[C@@H](C)[C@H](C)[C@H]2C2=CC[C@@H]4[C@@]5(C)CC[C@H](O)C(C)(C)[C@@H]5CC[C@@]4(C)[C@]2(C)CC3)cc1`, with 460 nM.
Still for that read-out and setting: then `CC(C)CN(C[C@@H](O)[C@H](Cc1ccccc1)NC(=O)[C@]1(C)CC[C@@H]2C3=CC(=O)[C@@H]4[C@@]5(C)CC[C@H](O)C(C)(C)[C@@H]5CC[C@@]4(C)[C@]3(C)CC[C@@]2(C)C1)S(=O)(=O)c1ccc([N+](=O)[O-])cc1`, with 1080 nM; and `CC(C)CN(C[C@@H](O)[C@H](Cc1ccccc1)NC(=O)[C@]12CC[C@@H](C)[C@H](C)[C@H]1C1=CC[C@@H]3[C@@]4(C)CCC(=O)C(C)(C)[C@@H]4CC[C@@]3(C)[C@]1(C)CC2)S(=O)(=O)c1ccc([N+](=O)[O-])cc1`, with 220 nM; and `CC(C)CN(C[C@@H](O)[C@H](Cc1ccccc1)NC(=O)[C@]12CCC(C)(C)C[C@H]1C1=CC[C@@H]3[C@@]4(C)CC[C@H](O)C(C)(C)[C@@H]4CC[C@@]3(C)[C@]1(C)CC2)S(=O)(=O)c1ccc([N+](=O)[O-])cc1`, with 150 nM.
As for `CC(C)CN(C[C@@H](O)[C@H](Cc1ccccc1)NC(=O)[C@]12CC[C@@H](C)[C@H](C)[C@H]1C1=CC[C@@H]3[C@@]4(C)CC[C@H](O)C(C)(C)[C@@H]4CC[C@@]3(C)[C@]1(C)CC2)S(=O)(=O)c1ccc([N+](=O)[O-])cc1`, the IC50 worked out at 400 nM.
Same read-out and setting: then `CC(C)CN(C[C@@H](O)[C@H](Cc1ccccc1)NC(=O)[C@]12CC[C@@H](C)[C@H](C)[C@H]1C1=CC[C@@H]3[C@@]4(C)CCC(=O)C(C)(C)[C@@H]4CC[C@@]3(C)[C@]1(C)CC2)S(=O)(=O)c1ccc(N)cc1`, with 2370 nM; and `CC(C)CN(C[C@@H](O)[C@H](Cc1ccccc1)NC(=O)[C@]1(C)CC[C@@H]2C3=CC(=O)[C@@H]4[C@@]5(C)CC[C@H](O)C(C)(C)[C@@H]5CC[C@@]4(C)[C@]3(C)CC[C@@]2(C)C1)S(=O)(=O)c1ccc(N)cc1`, with 490 nM; and `CC(C)CN(C[C@@H](O)[C@H](Cc1ccccc1)NC(=O)[C@]12CC[C@@H](C)[C@H](C)[C@H]1C1=CC[C@@H]3[C@@]4(C)C[C@@H](O)[C@H](O)[C@@](C)(CO)[C@@H]4CC[C@@]3(C)[C@]1(C)CC2)S(=O)(=O)c1ccc([N+](=O)[O-])cc1`, with 170 nM.
For the compound `CC(C)CN(C[C@@H](O)[C@H](Cc1ccccc1)NC(=O)[C@]12CC[C@@H](C)[C@H](C)[C@H]1C1=CC[C@@H]3[C@@]4(C)CC[C@H](O)C(C)(C)[C@@H]4CC[C@@]3(C)[C@]1(C)CC2)S(=O)(=O)c1ccc(N)cc1`, the IC50 is 120 nM.
Still for that read-out and setting: then `CC(C)CN(C[C@@H](O)[C@H](Cc1ccccc1)NC(=O)[C@]1(C)CC[C@H]2C3=CC(=O)[C@@H]4[C@@]5(C)CC[C@H](O)C(C)(C)[C@@H]5CC[C@@]4(C)[C@]3(C)CC[C@@]2(C)C1)S(=O)(=O)c1ccc(N)cc1`, with 580 nM.
For the compound `CC(C)CN(C[C@@H](O)[C@H](Cc1ccccc1)NC(=O)[C@]12CC[C@@H](C)[C@H](C)[C@H]1C1=CC[C@@H]3[C@@]4(C)C[C@@H](O)[C@H](O)[C@@](C)(CO)[C@@H]4CC[C@@]3(C)[C@]1(C)CC2)S(=O)(=O)c1ccc(N)cc1`, the IC50 worked out at 300 nM.
Still for that read-out and setting: then `COc1ccc(S(=O)(=O)N(CC(C)C)C[C@@H](O)[C@H](Cc2ccccc2)NC(=O)[C@]23CCC(C)(C)C[C@H]2C2=CC[C@@H]4[C@@]5(C)CC[C@H](O)C(C)(C)[C@@H]5CC[C@@]4(C)[C@]2(C)CC3)cc1`, with 240 nM; and `COc1ccc(S(=O)(=O)N(CC(C)C)C[C@@H](O)[C@H](Cc2ccccc2)NC(=O)[C@]23CC[C@@H](C)[C@H](C)[C@H]2C2=CC[C@@H]4[C@@]5(C)C[C@@H](O)[C@H](O)[C@@](C)(CO)[C@@H]5CC[C@@]4(C)[C@]2(C)CC3)cc1`, with 150 nM.
Compound `COc1ccc(S(=O)(=O)N(CC(C)C)C[C@@H](O)[C@H](Cc2ccccc2)NC(=O)[C@]23CC[C@@H](C)[C@H](C)[C@H]2C2=CC[C@@H]4[C@@]5(C)CCC(=O)C(C)(C)[C@@H]5CC[C@@]4(C)[C@]2(C)CC3)cc1` gave an IC50 of 370 nM.
For `COc1ccc(S(=O)(=O)N(CC(C)C)C[C@@H](O)[C@H](Cc2ccccc2)NC(=O)[C@]2(C)CC[C@@H]3C4=CC(=O)[C@@H]5[C@@]6(C)CC[C@H](O)C(C)(C)[C@@H]6CC[C@@]5(C)[C@]4(C)CC[C@@]3(C)C2)cc1`, half-maximal inhibition (IC50) was put at 1850 nM.

A further assay concerns the target Protease (Human immunodeficiency virus 1) (UniProt Q9YQ12). Nature of the assay: Potency index, ratio of ursolic acid IC50 to test compound IC50 for HIV1 protease expressed in Escherichia coli.
For the compound `CC(C)CN(C[C@@H](O)[C@H](Cc1ccccc1)NC(=O)[C@]12CC[C@@H](C)[C@H](C)[C@H]1C1=CC[C@@H]3[C@@]4(C)CC[C@H](O)C(C)(C)[C@@H]4CC[C@@]3(C)[C@]1(C)CC2)S(=O)(=O)c1ccc(N)cc1`, the Ratio IC50 was determined as 67.
